Data as given in US20250262201A1, “COMPOUNDS AND METHODS USEFUL FOR STABILIZING PHENYLALANINE HYDROXYLASE MUTATIONS” (Agios Pharmaceuticals, Inc., priority 2022, published 2025).

Molecular target: T1, human PAH with the R408W mutation (Homo sapiens, UniProt P00439, R408W)
T1 construct: expressed in transfected cells
T1 sequence (P00439 1-452 R408W): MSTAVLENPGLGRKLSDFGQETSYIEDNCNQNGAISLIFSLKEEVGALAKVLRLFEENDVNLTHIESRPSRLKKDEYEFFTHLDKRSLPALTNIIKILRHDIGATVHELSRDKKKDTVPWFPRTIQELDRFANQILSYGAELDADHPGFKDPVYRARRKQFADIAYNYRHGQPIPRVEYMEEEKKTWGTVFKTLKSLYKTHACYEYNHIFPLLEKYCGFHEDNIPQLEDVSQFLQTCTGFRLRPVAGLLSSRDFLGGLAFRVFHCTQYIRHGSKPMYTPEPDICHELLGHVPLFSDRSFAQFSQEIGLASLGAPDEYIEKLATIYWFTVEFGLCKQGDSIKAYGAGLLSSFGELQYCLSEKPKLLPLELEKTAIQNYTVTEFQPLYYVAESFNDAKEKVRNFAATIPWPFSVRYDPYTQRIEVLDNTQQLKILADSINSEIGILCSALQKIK
Test: Cell Based Phenylalanine Flux Assay
Settings: A375 cells expressing human R408W PAH; 24 hrs compound incubation; 13C-Tyrosine by LC-MS; average where tested multiple times; read-out: AC50

Compound | AC50
Cn1cc(-c2nnc(C(=O)N3CCc4[nH]cnc4C3c3ccc4ccccc4n3)o2)cn1 (stereo in doubt) [Example 48, (S)-(5-(1-methyl-1H-pyrazol-4-yl)-1,3,4-oxadiazol-2-yl)(4-(quinolin-2-yl)-6,7-dihydro-1H-imidazo[4,5-c]pyridin-5(4H)-yl)methanone] | > 5 µM
O=C([C@H]1CC1(F)F)N1CCc2[nH]cnc2[C@@H]1c1ccc2ccccc2n1 (stereo in doubt) [Example 49, ((R)-2,2-difluorocyclopropyl)((R)-4-(quinolin-2-yl)-6,7-dihydro-1H-imidazo[4,5-c]pyridin-5(4H)-yl)methanone] | < 0.5 µM
O=C([C@@H]1CC1(F)F)N1CCc2[nH]cnc2C1c1ccc2ccccc2n1 (stereo in doubt) [Example 50, ((S)-2,2-difluorocyclopropyl)((S)-4-(quinolin-2-yl)-6,7-dihydro-1H-imidazo[4,5-c]pyridin-5(4H)-yl)methanone] | > 5 µM
O=C(c1ocnc1C(F)F)N1CCc2nc[nH]c2C1c1ccc2ccccc2n1 (stereo in doubt) [Example 51, (R)-(4-(difluoromethyl)oxazol-5-yl)(4-(quinolin-2-yl)-6,7-dihydro-3H-imidazo[4,5-c]pyridin-5(4H)-yl)methanone] | < 0.5 µM
O=C(c1ocnc1C(F)F)N1CCc2nc[nH]c2C1c1ccc2ccccc2n1 (stereo in doubt) [Example 52, (S)-(4-(difluoromethyl)oxazol-5-yl)(4-(quinolin-2-yl)-6,7-dihydro-3H-imidazo[4,5-c]pyridin-5(4H)-yl)methanone] | 1 to 5 µM
O=C(CC1CC(F)C1)N1CCc2[nH]cnc2C1c1ccc2ccccc2n1 (stereo in doubt) [Example 53, (R)-2-(3-fluorocyclobutyl)-1-(4-(quinolin-2-yl)-6,7-dihydro-1H-imidazo[4,5-c]pyridin-5(4H)-yl)ethanone] | < 0.5 µM
O=C(CC1CC(F)C1)N1CCc2[nH]cnc2C1c1ccc2ccccc2n1 (stereo in doubt) [Example 54, (S)-2-(3-fluorocyclobutyl)-1-(4-(quinolin-2-yl)-6,7-dihydro-1H-imidazo[4,5-c]pyridin-5(4H)-yl)ethanone] | 1 to 5 µM
O=C(N1CCc2[nH]cnc2C1c1ccc2ccccc2n1)C(F)(F)C1(O)CCC1 (stereo in doubt) [Example 55, (R)-2,2-difluoro-2-(1-hydroxycyclobutyl)-1-(4-(quinolin-2-yl)-6,7-dihydro-1H-imidazo[4,5-c]pyridin-5(4H)-yl)ethanone] | 0.5 to 1 µM
O=C(N1CCc2[nH]cnc2C1c1ccc2ccccc2n1)C(F)(F)C1(O)CCC1 (stereo in doubt) [Example 56, (S)-2,2-difluoro-2-(1-hydroxycyclobutyl)-1-(4-(quinolin-2-yl)-6,7-dihydro-1H-imidazo[4,5-c]pyridin-5(4H)-yl)ethanone] | 1 to 5 µM
N#Cc1ncoc1C(=O)N1CCc2[nH]cnc2C1c1ccc2ccccc2n1 (stereo in doubt) [Example 57, (R)-5-(4-(quinolin-2-yl)-4,5,6,7-tetrahydro-1H-imidazo[4,5-c]pyridine-5-carbonyl)oxazole-4-carbonitrile] | < 0.5 µM
N#Cc1ncoc1C(=O)N1CCc2[nH]cnc2C1c1ccc2ccccc2n1 (stereo in doubt) [Example 58, (S)-5-(4-(quinolin-2-yl)-4,5,6,7-tetrahydro-1H-imidazo[4,5-c]pyridine-5-carbonyl)oxazole-4-carbonitrile] | 1 to 5 µM
O=C(CC1(O)CCC1)N1CCc2[nH]cnc2C1c1ccc2ccccc2n1 (stereo in doubt) [Example 59, (R)-2-(1-hydroxycyclobutyl)-1-(4-(quinolin-2-yl)-6,7-dihydro-1H-imidazo[4,5-c]pyridin-5(4H)-yl)ethanone] | < 0.5 µM
O=C(CC1(O)CCC1)N1CCc2[nH]cnc2C1c1ccc2ccccc2n1 (stereo in doubt) [Example 60, (S)-2-(1-hydroxycyclobutyl)-1-(4-(quinolin-2-yl)-6,7-dihydro-1H-imidazo[4,5-c]pyridin-5(4H)-yl)ethanone] | 1 to 5 µM
O=C(c1cnc(-c2ccccn2)o1)N1CCc2[nH]cnc2C1c1ccc2ccccc2n1 (stereo in doubt) [Example 61, (R)-(2-(pyridin-2-yl)oxazol-5-yl)(4-(quinolin-2-yl)-6,7-dihydro-1H-imidazo[4,5-c]pyridin-5(4H)-yl)methanone] | 0.5 to 1 µM
O=C(c1cnc(-c2ccccn2)o1)N1CCc2[nH]cnc2C1c1ccc2ccccc2n1 (stereo in doubt) [Example 62, (S)-(2-(pyridin-2-yl)oxazol-5-yl)(4-(quinolin-2-yl)-6,7-dihydro-1H-imidazo[4,5-c]pyridin-5(4H)-yl)methanone] | > 5 µM
O=C(c1nnc(-c2cnn(C(F)F)c2)o1)N1CCc2[nH]cnc2C1c1ccc2ccccc2n1 (stereo in doubt) [Example 63, (R)-(5-(1-(difluoromethyl)-1H-pyrazol-4-yl)-1,3,4-oxadiazol-2-yl)(4-(quinolin-2-yl)-6,7-dihydro-1H-imidazo[4,5-c]pyridin-5(4H)-yl)methanone] | < 0.5 µM
O=C(c1nnc(-c2cnn(C(F)F)c2)o1)N1CCc2[nH]cnc2C1c1ccc2ccccc2n1 (stereo in doubt) [Example 64, (S)-(5-(1-(difluoromethyl)-1H-pyrazol-4-yl)-1,3,4-oxadiazol-2-yl)(4-(quinolin-2-yl)-6,7-dihydro-1H-imidazo[4,5-c]pyridin-5(4H)-yl)methanone] | > 5 µM
O=C(c1oc(-c2ccccn2)nc1C(F)F)N1CCc2[nH]cnc2C1c1ccc2ccccc2n1 (stereo in doubt) [Example 65, (R)-(4-(difluoromethyl)-2-(pyridin-2-yl)oxazol-5-yl)(4-(quinolin-2-yl)-6,7-dihydro-1H-imidazo[4,5-c]pyridin-5(4H)-yl)methanone] | < 0.5 µM
O=C(c1nnc(-c2ccc(F)c(F)c2)o1)N1CCc2[nH]cnc2C1c1ccc2ccccc2n1 (stereo in doubt) [Example 69, (R)-(5-(3,4-difluorophenyl)-1,3,4-oxadiazol-2-yl)(4-(quinolin-2-yl)-6,7-dihydro-1H-imidazo[4,5-c]pyridin-5(4H)-yl)methanone] | 0.5 to 1 µM
O=C(c1nnc(-c2ccc(F)c(F)c2)o1)N1CCc2[nH]cnc2C1c1ccc2ccccc2n1 (stereo in doubt) [Example 70, (S)-(5-(3,4-difluorophenyl)-1,3,4-oxadiazol-2-yl)(4-(quinolin-2-yl)-6,7-dihydro-1H-imidazo[4,5-c]pyridin-5(4H)-yl)methanone] | > 5 µM
O=C(c1oc(C2CC(F)(F)C2)nc1C(F)F)N1CCc2[nH]cnc2C1c1ccc2ccccc2n1 (stereo in doubt) [Example 71, (R)-(2-(3,3-difluorocyclobutyl)-4-(difluoromethyl)oxazol-5-yl)(4-(quinolin-2-yl)-6,7-dihydro-1H-imidazo[4,5-c]pyridin-5(4H)-yl)methanone] | < 0.5 µM
O=C(c1oc(C2CC(F)(F)C2)nc1C(F)F)N1CCc2[nH]cnc2C1c1ccc2ccccc2n1 (stereo in doubt) [Example 72, (S)-(2-(3,3-difluorocyclobutyl)-4-(difluoromethyl)oxazol-5-yl)(4-(quinolin-2-yl)-6,7-dihydro-1H-imidazo[4,5-c]pyridin-5(4H)-yl)methanone] | 1 to 5 µM
